Data: ChEMBL document CHEMBL3885881, “DrugMatrix”

Organism: Rattus norvegicus
Experiment: DrugMatrix - Regimen: Daily Repeat
Type: toxicity, organism-based, Sprague-Dawley
Set-up: regimen Daily Repeat, gender Male, age 6-8 weeks
Conditions: in vivo, sc, 120 h, route subcutaneous, time 5 day, vehicle 100 % SALINE; for ALANINE AMINOTRANSFERASE / ALBUMIN / ALKALINE PHOSPHATASE / ASPARTATE AMINOTRANSFERASE / BLOOD UREA NITROGEN / CARBON DIOXIDE / CHLORIDE / CHOLESTEROL / CREATINE PHOSPHOKINASE / CREATININE / GLUCOSE / LACTATE DEHYDROGENASE / LIPASE / PHOSPHORUS / POTASSIUM / SODIUM / TOTAL BILIRUBIN / TOTAL PROTEIN / URIC ACID: tissue Plasma
[1] = 50 mg/kg, tissue Blood, dose level High

## CC(N)Cc1c[nH]c2ccc(OCc3cccs3)cc12 (configuration not stated) [BW-723C86]
10 mg/kg, dose level Low
  ALANINE AMINOTRANSFERASE: 53.33 u/L
  ALBUMIN: 4.03 G/DL
  ALKALINE PHOSPHATASE: 406.67 u/L
  ASPARTATE AMINOTRANSFERASE: 85.67 u/L
  BLOOD UREA NITROGEN: 14.67 mg/dL
  CARBON DIOXIDE: 33.33 mmol/L
  CHLORIDE: 103.33 MEQ/L
  CHOLESTEROL: 90.33 mg/dL
  CREATINE PHOSPHOKINASE: 200.33 u/L
  CREATININE: 0.18 mg/dL
  GLUCOSE: 150.33 mg/dL
  LACTATE DEHYDROGENASE: 93 u/L
  LIPASE: 8 u/L
  PHOSPHORUS: 13.1 mg/dL
  POTASSIUM: 7.02 MEQ/L
  SODIUM: 148.43 MEQ/L
  TOTAL BILIRUBIN: 0.1 mg/dL
  TOTAL PROTEIN: 6.43 G/DL
  URIC ACID: 1.67 mg/dL
[1]
  ABSOLUTE BASOPHIL: 0 CELLS/uL
  ABSOLUTE EOSINOPHIL: 0 CELLS/uL
  ABSOLUTE LYMPHOCYTE: 7706.33 CELLS/uL
  ABSOLUTE MONOCYTE: 71.33 CELLS/uL
  ABSOLUTE SEGMENTED NEUTROPHIL: 3055.67 CELLS/uL
  BASOPHIL: 0%
  EOSINOPHIL: 0%
  ERYTHROCYTE COUNT: 5.21 x10E6/uL
  HEMATOCRIT: 30.4%
  HEMOGLOBIN: 11.63 G/DL
  LEUKOCYTE COUNT: 10.83 x10E3/uL
  LYMPHOCYTE: 71%
  MEAN CORPUSCULAR HEMOGLOBIN: 22.4 pg
  MEAN CORPUSCULAR HEMOGLOBIN CONCENTRATION: 38.3 G/DL
  MEAN CORPUSCULAR VOLUME: 58.4 fL
  MONOCYTE: 0.67%
  NEUTROPHIL: 28.33%
  NUCLEATED RED BLOOD CELLS: 0.33 /100WBC
  PLATELET COUNT: 1382.67 x10E3/uL
50 mg/kg, dose level High
  ALANINE AMINOTRANSFERASE: 47.33 u/L
  ALBUMIN: 3.33 G/DL
  ALKALINE PHOSPHATASE: 343 u/L
  ASPARTATE AMINOTRANSFERASE: 83.67 u/L
  BLOOD UREA NITROGEN: 15 mg/dL
  CARBON DIOXIDE: 28 mmol/L
  CHLORIDE: 104.33 MEQ/L
  CHOLESTEROL: 78.33 mg/dL
  CREATINE PHOSPHOKINASE: 168.33 u/L
  CREATININE: 0.18 mg/dL
  GLUCOSE: 174 mg/dL
  LACTATE DEHYDROGENASE: 96.33 u/L
  LIPASE: 8.33 u/L
  PHOSPHORUS: 13.63 mg/dL
  POTASSIUM: 6.41 MEQ/L
  SODIUM: 147.13 MEQ/L
  TOTAL BILIRUBIN: 0.1 mg/dL
  TOTAL PROTEIN: 5.87 G/DL
  URIC ACID: 2.1 mg/dL
